Measurements from patent US11420970B1 (NOVARTIS AG, priority 2019, dated 2022).
Like-named read-outs stand apart in the source and are kept apart here.

Legend:
[1] = test system: cellular H3K36me2 level in multiple myeloma cell line KMS11 (t(4;14)+); assay: H3K36me2 cellular ELISA assay in KMS11-Par line; format: cell-based; conditions: Homo sapiens, read-out: H3K36me2 ELISA in KMS11-Par
Summary of the method: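 KMS11 cells were seeded a day ahead at 1,250 per well in Opti-MEM with B-27/N2, then treated with compound for 72 h. Histones were acid-extracted with 0.4M HCl, and H3K36me2 and total H3 were read by chemiluminescent ELISA. Viability was checked with CellTiter-Glo on a parallel plate in maintenance media.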

[2] = target: NSD2 [1-1365] (Homo sapiens (Human), UniProt O96028); assay: LC-MS/MS-based NSD2 enzymatic assay (SAH production); format: biochemical; conditions: read-out: NSD2 IC50
NSD2 [1-1365], sequence (O96028 whole entry): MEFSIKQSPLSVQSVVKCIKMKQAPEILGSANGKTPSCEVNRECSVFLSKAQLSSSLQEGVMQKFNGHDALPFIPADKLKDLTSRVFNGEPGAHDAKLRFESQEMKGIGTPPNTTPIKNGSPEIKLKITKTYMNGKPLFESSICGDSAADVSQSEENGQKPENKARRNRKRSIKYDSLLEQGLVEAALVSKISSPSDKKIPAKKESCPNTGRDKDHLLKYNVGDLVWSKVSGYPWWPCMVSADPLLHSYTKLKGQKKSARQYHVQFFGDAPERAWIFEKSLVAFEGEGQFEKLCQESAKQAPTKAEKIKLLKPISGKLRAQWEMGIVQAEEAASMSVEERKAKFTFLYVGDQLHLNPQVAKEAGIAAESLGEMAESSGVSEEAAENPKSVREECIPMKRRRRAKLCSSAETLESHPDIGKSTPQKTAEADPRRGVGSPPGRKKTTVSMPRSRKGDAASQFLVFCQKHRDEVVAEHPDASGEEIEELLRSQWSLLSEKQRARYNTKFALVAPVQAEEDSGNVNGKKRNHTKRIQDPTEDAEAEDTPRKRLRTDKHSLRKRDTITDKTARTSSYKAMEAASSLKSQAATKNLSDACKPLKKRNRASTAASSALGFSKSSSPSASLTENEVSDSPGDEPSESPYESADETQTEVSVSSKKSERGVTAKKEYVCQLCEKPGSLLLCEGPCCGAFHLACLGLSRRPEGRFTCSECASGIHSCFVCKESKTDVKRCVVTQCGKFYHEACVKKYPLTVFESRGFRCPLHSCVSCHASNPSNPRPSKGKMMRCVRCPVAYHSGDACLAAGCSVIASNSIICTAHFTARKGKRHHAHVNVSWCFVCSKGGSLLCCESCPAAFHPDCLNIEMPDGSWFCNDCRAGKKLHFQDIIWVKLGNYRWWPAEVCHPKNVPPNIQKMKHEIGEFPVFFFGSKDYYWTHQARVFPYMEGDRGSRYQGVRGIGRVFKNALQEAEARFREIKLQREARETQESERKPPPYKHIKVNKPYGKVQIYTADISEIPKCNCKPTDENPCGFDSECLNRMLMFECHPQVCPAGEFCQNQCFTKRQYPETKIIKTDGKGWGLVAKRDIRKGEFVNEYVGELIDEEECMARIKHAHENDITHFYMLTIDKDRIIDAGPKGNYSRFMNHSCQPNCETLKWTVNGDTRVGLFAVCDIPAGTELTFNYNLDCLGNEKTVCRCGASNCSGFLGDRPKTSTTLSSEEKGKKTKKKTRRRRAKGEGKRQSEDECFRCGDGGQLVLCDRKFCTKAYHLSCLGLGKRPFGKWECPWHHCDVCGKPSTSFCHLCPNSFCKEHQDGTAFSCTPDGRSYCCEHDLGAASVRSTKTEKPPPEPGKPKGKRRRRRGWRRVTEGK
Summary of the method: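 Full-length NSD2 [1-1365] (8 nM final) with 1 μM SAM and 400 nM mouse-liver nucleosome in Tris pH 8.0 buffer; inhibitor preincubated 20 min with enzyme/SAM before nucleosome addition. Reaction 90 min at room temperature, TFA-quenched; SAH quantified by LC-MS/MS against d4-SAH internal standard and SAH standard curve.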

[3] = test system: cellular H3K36me2 level in thyroid carcinoma cell line CGTH-W-1 (NSD2 E1099K); assay: H3K36me2 cellular ELISA assay in CGTH-W-1 line; format: cell-based; conditions: Homo sapiens, CGTH-W-1, 72 h, read-out: H3K36me2 ELISA in CGTH-W-1
Summary of the method: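 CGTH-W-1 thyroid carcinoma cells (NSD2 E1099K gain-of-function) exposed to compound for 72 hours. Histone-bound plates probed for H3K36me2 and total H3 by chemiluminescent ELISA. Viability checked on a parallel plate with CellTiter-Glo.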

[4] = test system: cellular H3K36me2 level in multiple myeloma cell line KMS11 (t(4;14)+); assay: H3K36me2 cellular FRET assay in KMS11-Par line; format: cell-based; conditions: Homo sapiens
Procedure: H3K36Me2 Cellular FRET Assay in KMS11-Par Line
Fluorescence Resonance Energy Transfer (FRET) assay was used to test the ability of candidate compound to reduce cellular H3K36me2 level in multiple myeloma cell line KMS11 (t(4;14)+) (Horizon Discovery Ltd.).
Cells were treated with tested compounds at the desired concentration for 48 hours. […] Histone extract was incubated with Eu labeled anti-H3K36me2 antibody (abcam #ab ab9049) and d2 labeled anti-H3 antibody (abcam #ab1791) for 1 hour at room temperature. A Eu labeled anti-H3 antibody (CISBIO #64CUS000) was used for loading control. The abundancy of H3K36me2 or total H3 was measured by fluorescence signal on Perkin Elmer Envison machine.

[5] = NSD2 biochemical activity, class symbols
[6] = KMS-11, KMS11-Par line, cellular H3K36me2 level, FRET, read-out: H3K36me2 FRET in KMS11-Par
[7] = KMS-11, KMS11-Par line (t(4;14)+), 72 hours treatment, ELISA

IC50 ([1]; KMS-11, KMS11-Par line, ELISA, 72 hours) | IC50 [2] | IC50 ([4]; KMS-11, KMS11-Par line, FRET, read-out: H3K36me2 FRET in KMS11-Par) | SMILES | IC50 ([1]; KMS-11, 72 h) | IC50 [2, 5] | IC50 [3] | IC50 ([4]; KMS-11, read-out: H3K36me2 FRET in KMS11-Par) | IC50 [4, 6] | IC50 [1, 7]
 |  |  | COc1ccc(-c2cc(Cn3cnc4c(N)ncnc43)c(N3CCC[C@@H](N)C3)cn2)cc1F [Example 1, (R)-9-((5-(3-aminopiperidin-1-yl)-2-(3-fluoro-4-methoxyphenyl)pyridin-4-yl)methyl)-9H-purin-6-amine] | 4.09 µM | 0.01 to 1 µM | 0.75 µM | 3.03 µM |  | 
 |  |  | COc1ccc(-c2cc(Cn3cnc4c(N)ncnc43)c(N3CC[C@@H](F)[C@@H](N)C3)cn2)cc1F [Example 5, 9-((5-((3S,4R)-3-amino-4-fluoropiperidin-1-yl)-2-(3-fluoro-4-methoxyphenyl)pyridin-4-yl)methyl)-9H-purin-6-amine] |  | 0.01 to 1 µM | 1.77 µM |  | 6.46 µM | 
 |  |  | Nc1ncnc2c1ncn2Cc1cc(-c2ccc(F)c(F)c2)ncc1N1CCC[C@](N)(COC2CCC2)C1 [Example 30, (R)-9-((5-(3-amino-3-(cyclobutoxymethyl)piperidin-1-yl)-2-(3,4-difluorophenyl)pyridin-4-yl)methyl)-9H-purin-6-amine] |  | 0.001 to 0.01 µM | 0.659 µM |  | 0.569 µM | 2.03 µM
 |  |  | COc1ccc(-c2cc(Cn3cnc4c(N)ncnc43)c(N3CCC[C@](N)(COC4CCC4)C3)cn2)cc1F [Example 32, (R)-9-((5-(3-amino-3-(cyclobutoxymethyl)piperidin-1-yl)-2-(3-fluoro-4-methoxyphenyl)pyridin-4-yl)methyl)-9H-purin-6-amine] |  | 0.001 to 0.01 µM | 0.196 µM |  | 0.27 µM | 0.728 µM
 |  |  | CC(C)OC[C@@]1(N)CCCN(c2cnc(-c3ccc(F)cc3)cc2Cn2cnc3c(N)ncnc32)C1 [Example 37, (R)-9-((5-(3-amino-3-(isopropoxymethyl)piperidin-1-yl)-2-(4-fluorophenyl)pyridin-4-yl)methyl)-9H-purin-6-amine] |  | 0.01 to 1 µM |  |  | 0.614 µM | 1.4 µM
 |  |  | Nc1ncnc2c1ncn2Cc1cc(-c2ccc(F)c(F)c2)ncc1N1CCC[C@](N)(COC(F)F)C1 [Example 41, (R)-9-((5-(3-amino-3-((difluoromethoxy)methyl)piperidin-1-yl)-2-(3,4-difluorophenyl)pyridin-4-yl)methyl)-9H-purin-6-amine] |  | 0.01 to 1 µM |  |  | 1.09 µM | 2.31 µM
 |  |  | COc1ccc(-c2cc(Cn3cnc4c(N)ncnc43)c(N3CCC[C@](N)(COC(F)F)C3)cn2)cc1F [Example 42, (R)-9-((5-(3-amino-3-((difluoromethoxy)methyl)piperidin-1-yl)-2-(3-fluoro-4-methoxyphenyl)pyridin-4-yl)methyl)-9H-purin-6-amine] |  | 0.01 to 1 µM | 0.789 µM |  | 1.23 µM | 10.7 µM
 |  |  | Nc1ncnc2c1ncn2Cc1cc(-c2ccc(F)c(F)c2)ncc1N1CCC[C@](N)(CC(F)F)C1 [Example 47, (S)-9-((5-(3-amino-3-(2,2-difluoroethyl)piperidin-1-yl)-2-(3,4-difluorophenyl)pyridin-4-yl)methyl)-9H-purin-6-amine] |  | 0.01 to 1 µM | 0.377 µM |  | 1.18 µM | 1.54 µM
 |  |  | Nc1ncnc2c1ncn2Cc1cc(-c2ccc(F)c(F)c2)ncc1N1CCC[C@](N)(Cc2ncco2)C1 [Example 52, (S)-9-((5-(3-amino-3-(oxazol-2-ylmethyl)piperidin-1-yl)-2-(3,4-difluorophenyl)pyridin-4-yl)methyl)-9H-purin-6-amine] |  | 0.001 to 0.01 µM | 0.541 µM |  | 1.2 µM | 1.32 µM
 |  |  | Nc1ncnc2c1ncn2Cc1cc(-c2ccc(F)c(F)c2)ncc1N1CCC[C@](N)(Cc2ccccn2)C1 [Example 54, (S)-9-((5-(3-amino-3-(pyridin-2-ylmethyl)piperidin-1-yl)-2-(3,4-difluorophenyl)pyridin-4-yl)methyl)-9H-purin-6-amine] |  | 0.001 to 0.01 µM |  |  | 0.45 µM | 0.78 µM
 |  |  | COc1ccc(-c2cc(Cn3cnc4c(N)ncnc43)c(N3CCC[C@](N)(CC(F)F)C3)cn2)cc1F [Example 61, (S)-9-((5-(3-amino-3-(2,2-difluoroethyl)piperidin-1-yl)-2-(3-fluoro-4-methoxyphenyl)pyridin-4-yl)methyl)-9H-purin-6-amine] |  | 0.01 to 1 µM | 0.643 µM |  | 1.42 µM | 
 |  |  | COc1ccc(-c2cc(Cn3cnc4c(N)ncnc43)c(N3CCC[C@](N)([C@H](C)OC)C3)cn2)cc1F [Example 93, 9-((5-((R)-3-amino-3-((S)-1-methoxyethyl)piperidin-1-yl)-2-(3-fluoro-4-methoxyphenyl)pyridin-4-yl)methyl)-9H-purin-6-amine] |  | 0.01 to 1 µM | 3.21 µM |  | 1.39 µM | 3.97 µM
 |  |  | COc1ccc(-c2cc(Cn3cnc4c(N)ncnc43)c(N3CCC[C@](N)([C@@H](C)OC)C3)cn2)cc1F [Example 94, 9-((5-((R)-3-amino-3-((R)-1-methoxyethyl)piperidin-1-yl)-2-(3-fluoro-4-methoxyphenyl)pyridin-4-yl)methyl)-9H-purin-6-amine] |  | 0.01 to 1 µM | 1.09 µM |  | 3.04 µM | 1.2 µM
 |  |  | CO[C@@H](C)[C@@]1(N)CCCN(c2cnc(-c3ccc(F)c(F)c3)cc2Cn2cnc3c(N)ncnc32)C1 [Example 95, 9-((5-((R)-3-amino-3-((S)-1-methoxyethyl)piperidin-1-yl)-2-(3,4-difluorophenyl)pyridin-4-yl)methyl)-9H-purin-6-amine] |  | 0.01 to 1 µM | 1.65 µM |  | 1.82 µM | 3.03 µM
 |  |  | CO[C@H](C)[C@@]1(N)CCCN(c2cnc(-c3ccc(F)c(F)c3)cc2Cn2cnc3c(N)ncnc32)C1 [Example 97, 9-((5-((R)-3-amino-3-((R)-1-methoxyethyl)piperidin-1-yl)-2-(3,4-difluorophenyl)pyridin-4-yl)methyl)-9H-purin-6-amine] |  | 0.01 to 1 µM | 1.16 µM |  | 1.5 µM | 1.24 µM
1.86 µM | 0.01 to 1 µM | 2.33 µM | COc1ccc(-c2cc(Cn3cnc4c(N)ncnc43)c(N3CCCC(N)(C(C)F)C3)cn2)cc1F (stereo not shown) [Example 295, 9-((5-(3-amino-3-(1-fluoroethyl)piperidin-1-yl)-2-(3-fluoro-4-methoxyphenyl)pyridin-4-yl)methyl)-9H-purin-6-amine] |  |  |  |  |  | 
